Reference: the supplement of paper PMC10307832

What was measured:
Experiment in all cases: relative viability (nuclei count vs DMSO), 5 days (fraction); higher = more cells survive
BAY61-3606 + AZD7762 = compound: COC1=C(C=C(C=C1)C2=CC3=NC=CN3C(=N2)NC4=C(C=CC=N4)C(=O)N)OC [BAY61-3606] + NC(=O)Nc1cc(-c2cccc(F)c2)sc1C(=O)N[C@H]1CCCNC1 [AZD7762] (partner 0.2 µM)
How it was run: (§1)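 Lung cancer cell lines in 1536-well plates got either a single drug or a fixed anchor-drug dose together with five library-drug doses (not always all listed) in √10 steps, by pin tool, on the day after seeding. Nuclei were counted after 5 days, and relative viability is the treated-to-vehicle ratio of nuclei counts. Values are medians of duplicate plates.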

BAY61-3606 + Olaparib = compound: COC1=C(C=C(C=C1)C2=CC3=NC=CN3C(=N2)NC4=C(C=CC=N4)C(=O)N)OC [BAY61-3606] + O=C(c1cc(Cc2n[nH]c(=O)c3ccccc23)ccc1F)N1CCN(C(=O)C2CC2)CC1 [Olaparib] (partner 8 µM)
How it was run: as §1

Doxorubicin + Foretinib = compound: COc1cccc2c1C(=O)c1c(O)c3c(c(O)c1C2=O)C[C@@](O)(C(=O)CO)C[C@@H]3O[C@H]1C[C@H](N)[C@H](O)[C@H](C)O1 [Doxorubicin] + COc1cc2c(Oc3ccc(NC(=O)C4(C(=O)Nc5ccc(F)cc5)CC4)cc3F)ccnc2cc1OCCCN1CCOCC1 [Foretinib] (partner 0.25 µM)
How it was run: as §1

Doxorubicin + Crizotinib = compound: COc1cccc2c1C(=O)c1c(O)c3c(c(O)c1C2=O)C[C@@](O)(C(=O)CO)C[C@@H]3O[C@H]1C[C@H](N)[C@H](O)[C@H](C)O1 [Doxorubicin] + C[C@@H](Oc1cc(-c2cnn(C3CCNCC3)c2)cnc1N)c1c(Cl)ccc(F)c1Cl [Crizotinib] (partner 1 µM)
How it was run: as §1

Cell Line	relative viability (BAY61-3606 + AZD7762; first compound 0.02 µM)	relative viability (BAY61-3606 + AZD7762; first compound 0.06325 µM)	relative viability (BAY61-3606 + AZD7762; first compound 0.2 µM)	relative viability (BAY61-3606 + AZD7762; first compound 0.6325 µM)	relative viability (BAY61-3606 + AZD7762; first compound 2 µM)	relative viability (BAY61-3606 + Olaparib; first compound 0.02 µM)	relative viability (BAY61-3606 + Olaparib; first compound 0.06325 µM)	relative viability (BAY61-3606 + Olaparib; first compound 0.2 µM)	relative viability (BAY61-3606 + Olaparib; first compound 0.6325 µM)	relative viability (BAY61-3606 + Olaparib; first compound 2 µM)	relative viability (Doxorubicin + Foretinib; first compound 0.003162 µM)	relative viability (Doxorubicin + Foretinib; first compound 0.01 µM)	relative viability (Doxorubicin + Foretinib; first compound 0.03162 µM)	relative viability (Doxorubicin + Foretinib; first compound 0.1 µM)	relative viability (Doxorubicin + Crizotinib; first compound 0.003162 µM)	relative viability (Doxorubicin + Crizotinib; first compound 0.01 µM)	relative viability (Doxorubicin + Crizotinib; first compound 0.03162 µM)	relative viability (Doxorubicin + Crizotinib; first compound 0.1 µM)	relative viability (Doxorubicin + Foretinib; first compound 0.001 µM)	relative viability (Doxorubicin + Crizotinib; first compound 0.001 µM)
HCC-366	0.286	0.222	0.282	0.265	0.283	0.406	0.436	0.365	0.324	0.235	0.963	0.967	1.01	0.94	0.697	0.509	0.236	0.333	–	–
HCC-827	0.219	0.176	0.211	0.215	0.207	0.648	0.737	0.67	0.606	0.624	1	1.05	0.984	0.982	0.993	0.913	0.955	0.908	1.07	0.982
HOP-62	–	0.643	0.517	0.748	0.531	0.476	0.569	0.279	0.505	0.376	1.07	1.06	1.11	1.16	1.02	0.956	0.901	1.01	1.05	1.04
LC-2-ad	0.876	0.887	0.778	0.857	0.849	0.703	0.701	0.723	0.717	0.578	0.778	0.714	0.392	0.321	0.414	0.459	0.416	0.389	0.862	0.265
LCLC-97TM1	0.204	0.326	0.228	0.393	0.345	0.498	0.365	0.462	0.336	0.389	0.861	0.895	0.882	0.891	0.455	0.244	0.344	0.371	0.977	0.365
LCLC-103H	0.762	0.704	0.836	0.758	0.769	0.764	0.786	0.847	0.758	0.772	0.82	0.786	0.66	0.758	1.06	1.03	1.06	1.19	0.767	1.07
LK-2	0.369	0.309	0.472	0.534	0.361	0.694	0.598	0.731	0.846	0.736	1.32	0.904	0.826	1.41	0.223	0.235	0.227	0.272	1.2	0.29
LOU-NH91	0.792	0.686	0.748	0.784	0.656	0.944	0.922	0.903	0.944	0.728	0.879	0.944	0.931	0.839	0.763	0.772	0.674	0.711	0.742	–
LU99A	0.41	0.306	0.358	0.399	0.334	0.261	0.253	0.241	0.246	0.243	0.915	0.769	0.721	0.802	0.522	0.671	0.417	0.46	0.832	0.548
LXF-289	1.13	1.1	1.04	1.24	1.24	1.05	1.1	0.96	1.04	0.963	0.975	0.97	1.09	0.98	0.832	0.832	0.837	0.805	0.958	0.761
NCI-H23	0.227	0.192	0.251	0.265	0.224	0.327	0.304	0.289	0.305	0.288	0.863	1.03	0.855	0.981	0.479	0.507	0.298	0.449	–	–
NCI-H322M	0.528	0.525	0.579	0.522	0.571	0.779	0.822	0.75	0.749	0.724	0.898	0.905	0.717	0.562	1.07	0.86	0.922	0.893	0.92	1.02
NCI-H358	0.489	0.502	0.469	0.468	0.261	0.654	0.601	0.751	0.573	0.449	0.737	0.341	0.151	0.122	0.543	0.441	0.202	0.0991	0.743	0.728
NCI-H441	1.21	1.29	1.04	1.3	0.974	0.561	0.629	0.511	0.473	0.32	1.04	0.897	0.48	0.368	0.644	0.63	0.487	0.48	–	0.827
NCI-H460	0.63	0.646	0.739	0.631	0.766	0.501	0.464	0.393	0.444	0.457	1.09	0.843	0.105	0.0481	0.882	0.273	0.0178	0.006	0.965	0.887
NCI-H596	1.04	0.929	1.13	1.7	0.846	0.74	0.75	0.722	0.925	0.544	1.04	0.976	0.619	0.964	1.13	0.916	0.91	0.933	0.981	0.984

Cell Line	relative viability (BAY61-3606 + AZD7762; first compound 0.02 µM)	relative viability (BAY61-3606 + AZD7762; first compound 0.06325 µM)	relative viability (BAY61-3606 + AZD7762; first compound 0.2 µM)	relative viability (BAY61-3606 + AZD7762; first compound 0.6325 µM)	relative viability (BAY61-3606 + AZD7762; first compound 2 µM)	relative viability (BAY61-3606 + Olaparib; first compound 0.02 µM)	relative viability (BAY61-3606 + Olaparib; first compound 0.06325 µM)	relative viability (BAY61-3606 + Olaparib; first compound 0.2 µM)	relative viability (BAY61-3606 + Olaparib; first compound 0.6325 µM)	relative viability (BAY61-3606 + Olaparib; first compound 2 µM)	relative viability (Doxorubicin + Foretinib; first compound 0.003162 µM)	relative viability (Doxorubicin + Foretinib; first compound 0.01 µM)	relative viability (Doxorubicin + Foretinib; first compound 0.03162 µM)	relative viability (Doxorubicin + Foretinib; first compound 0.1 µM)	relative viability (Doxorubicin + Crizotinib; first compound 0.003162 µM)	relative viability (Doxorubicin + Crizotinib; first compound 0.01 µM)	relative viability (Doxorubicin + Crizotinib; first compound 0.03162 µM)	relative viability (Doxorubicin + Crizotinib; first compound 0.1 µM)	relative viability (Doxorubicin + Foretinib; first compound 0.001 µM)	relative viability (Doxorubicin + Crizotinib; first compound 0.001 µM)
NCI-H647	0.433	0.393	0.383	0.444	0.324	0.729	0.743	0.574	0.432	0.237	1.38	1.14	0.882	0.545	1.26	0.84	0.375	0.17	1.2	1.02
NCI-H650	1.18	0.887	0.889	0.998	0.999	0.365	0.371	0.382	0.395	0.32	0.965	1.08	0.834	0.954	0.657	0.562	0.568	0.534	0.93	0.878
NCI-H727	0.747	0.509	0.577	0.75	0.734	0.586	0.643	0.752	0.68	0.627	1.22	1.03	0.725	1.05	1.01	0.787	0.677	0.578	0.894	0.817
NCI-H838	1.06	0.847	0.954	0.908	0.895	0.802	0.847	0.751	0.729	0.571	1.07	1.06	0.85	0.438	0.877	0.87	0.417	0.234	1.1	0.8
NCI-H1355	0.833	0.531	0.679	0.749	0.529	0.778	0.713	0.708	0.762	0.641	1.01	0.884	0.91	0.897	1.16	1.01	0.964	1.05	0.97	1.05
NCI-H1437	1.14	1.08	1.17	1.21	1.12	0.634	0.687	0.607	0.621	0.555	1.26	1.24	1.1	0.621	0.924	0.962	0.517	0.262	1.16	0.866
NCI-H1651	0.517	0.454	0.463	0.52	0.498	0.195	0.198	0.184	0.182	0.145	0.929	0.737	0.48	0.222	0.929	0.855	0.836	0.871	0.842	0.934
NCI-H1666	0.917	0.895	0.852	0.834	0.82	0.767	0.827	0.748	0.754	0.724	0.872	0.792	0.5	0.468	0.915	0.608	0.295	0.285	0.964	1.02
NCI-H1703	0.119	–	–	0.108	0.137	0.626	0.383	0.448	0.541	0.276	0.304	0.3	–	0.24	0.789	0.365	0.179	0.0887	–	0.578
NCI-H1734	0.554	0.508	0.557	0.502	0.374	0.604	0.555	0.561	0.541	0.378	0.989	0.934	0.68	0.769	0.788	0.583	0.517	0.588	0.854	0.714
NCI-H1755	0.439	0.483	0.462	0.422	0.59	0.908	0.883	0.852	0.911	0.789	0.949	0.903	0.971	0.937	0.943	0.862	0.915	0.887	0.981	0.867
NCI-H1915	0.658	0.708	0.641	0.659	0.66	0.253	0.236	0.254	0.247	0.181	1.11	1.02	1.06	1.1	0.915	0.871	0.889	0.952	1.1	0.917
NCI-H1944	0.477	0.533	0.635	0.592	0.485	0.439	0.38	0.397	0.434	0.258	0.945	0.908	0.812	0.869	1.16	1.03	1	1.14	0.848	1.09
NCI-H1975	0.706	0.603	0.621	0.654	0.348	0.858	0.798	0.733	0.707	0.516	1	0.879	0.855	0.444	1.09	0.946	0.431	0.423	0.998	0.853
NCI-H1993	0.823	0.824	0.614	0.869	0.739	1.11	1.04	0.984	1.13	0.82	0.851	0.769	0.673	0.839	0.812	0.839	0.721	0.822	0.876	1.08
NCI-H2085	1.01	1.08	0.969	1.1	0.942	0.863	0.868	0.726	0.843	0.698	0.981	1.08	0.923	0.855	0.97	0.943	0.648	0.63	1.05	0.924
